From patent publication US10563216B2, “Compositions and methods of delivering molecules to plants” (Bloomsburg University of Pennsylvania, priority 2016, dated 2020)

Test system: AvsYS1 avenic acid/Fe+3 transporter
Experiment: Yeast growth assay in liquid medium; only iron available is Fe+3 complexed with the phytosiderophore or analog; DEY1453:pJKD1 (pYES2/AvsYS1) vs DEY1453:pYES2
Assay type: cell-based, Avena sativa
Conditions: for growth of yeast transformants containing pJKD1 (AvsYS1 transporter): S. cerevisiae DEY1453:pJKD1, ferric iron supplied only as complex with the substance, YNB pH 7.5, BPDS
Excerpt: AvsYS1 (Genbank FJ477297.1) was isolated using 5′RACE from the roots of iron starved oats (Avena sativa). Primers were designed by comparing one functionally confirmed phytosiderophore/Fe′ transporter (HvYS1) and other iron transport proteins. After obtaining a full-length clone, we subcloned the gene (AvsYS1) into a yeast galactose inducible expression vector (pYES2). The resultant plasmid was designated pJKD1. We obtained a yeast strain that lacks the ability to take up ferric iron, and transformed it with pYES2 and pJKD1. The transformants were grown under identical conditions in which the only iron available was in the Fe^+3/avenic acid complex.
We engineered the AvsYS1 gene into a galactose inducible expression systems vector (pYES2). Our first major result was the functional confirmation of the AvsYS1 gene. We transformed pYES2 and pJKD1 (pYES2/AvsYS1) into a strain of S. cerevisiae (DEY1453) that lacks the ability to take up Fe^+3. In the process, we developed a new assay based on growth in liquid medium. The advantage of this assay over more traditional assays used in yeast-based PS/Fe^+3 assays is that it is quantifiable. Other assays (e.g., Murata, 2006) grow yeast on a solid plate, and qualitative growth of colonies is used. With our assay, we can generate numerical data based on the density as measured by the absorbance at 600 nm. […] Further detail is provided below.
Protocols included: 53Y and 53K in DOB+FeSO4, 53Y and 53K in YNB supplemented with Avenic acid; 53Y and 53K supplemented with BPA-1-068B; 53Y and 53K in YNB w/no supplements; uninoculated YNB; uninoculated DOB.
Protocols included: 53Y and 53K, supplemented with Avenic acid, 53Y and 53K supplemented with BPA-1-068B, 53Y and 53K in YNB w/no supplements.
Strains grown in YNB/Gal, pH 7.5, Amp50, Avenic acid: Fe^+3, 5:1
Protocols included: 53Y(pYES2) and 53K(pJKD1=pYES2+AvsYS1), supplemented with Avenic acid (red arrows); 53Y and 53K supplemented with BPA-1-068B (blue arrows); 53Y and 53K in YNB w/no supplements.

SMILES | growth rate of DEY1453:pJKD1 (Fe+3 complexed with the analog, robustness compared to DEY1453:pYES2 controls) | growth of yeast transformants containing pJKD1 (AvsYS1 transporter) | growth of yeast transformants with pYES2 (no transporter) (S. cerevisiae DEY1453:pYES2, only iron available is the Fe+3 complex with the substance)
O=C(CC(NCCC(NCC[C@H](O)C(=O)O)C(=O)O)C(=O)O)OCc1ccccc1O (some centres unmarked) [BPA-1-068B] | slower, but undeniably robust | able to grow | –
O=C(O)C(CO)NCCC(NCC[C@H](O)C(=O)O)C(=O)O (some centres unmarked) [MGS-2-128BF] | – | supported growth as well as avenic acid | –
O=C(O)C(CCO)NCCC(NCC[C@H](O)C(=O)O)C(=O)O (some centres unmarked) [avenic acid] | – | able to grow vigorously | could not
